Test results reported in patent publication US20140323534A1, “USES OF 3'-DESFERRITHIOCIN ANALOGS” (University of Florida Research Foundation, Inc., priority 2011, published 2014).
Like-named read-outs stand apart in the source and are kept apart here.

Key:
[1] = system: acetic acid-induced colitis in rats; test: Prevention of acetic acid-induced colitis in a rat model; assay type: in vivo, Sprague-Dawley rats; details: FIG. 1: 20 mg/kg IV 30 minutes before the 4% acetic acid
LogPapp of DFT analogs = assay type: physicochemical
[2] = Concentration of DFT analogs in rat plasma and cerebrospinal fluid after oral (PO) and subcutaneous (SC) doses; assay type: in vivo, Sprague-Dawley rats; details: rats, monosodium salt; for concentration at 0.5 h / concentration at 1 h / concentration at 2 h / concentration at 4 h / concentration at 8 h: male, Sprague-Dawley, rat; for concentration at 8 h / Concentration in plasma: 8 h
Procedure: The DFT analogs useful in the inventive methods were converted from the free acid form to the monosodium salt form. Water followed by one equivalent of sodium hydroxide was added to the DFT analog as a free acid. The resulting slurry was vortexed or sonicated until the DFT analog went into solution. More water was added, and the solution was vortexed or sonicated again. The formed yellow solution, having a pH about 7, was used as a sample solution in the following examples. It is preferred that a fresh sample solution of the DFT analog is made shortly before the solution is used in an assay.
Adult male Sprague-Dawley rats (450-500 g) were used. The rats were not fasted. A sample solution of a monosodium salt of (S)-3′-(HO)-DADFT-norPE (II-A) or (S)-3′-(HO)-DADFT-PE (III-A) was administered to the rats at an oral or subcutaneous dose of 300 μmol/kg. Concentrations of the DFT analogs in the plasma and cerebrospinal fluid of the rats were measured at 0.5 hour, 1 hour, 2 hours, 4 hours, and 8 hours post administration.

[3] = cerebrospinal fluid, 300 μmol/kg SC, read-out: Concentration in cerebrospinal fluid
[4] = plasma, 300 μmol/kg SC, read-out: Concentration in plasma
[5] = cerebrospinal fluid, 300 μmol/kg PO, read-out: Concentration in cerebrospinal fluid
[6] = plasma, 300 μmol/kg PO, read-out: Concentration in plasma

For `CC(=O)N(O)CCCCCNC(=O)CCC(=O)N(O)CCCCCNC(=O)CCC(=O)N(O)CCCCCN` [DFO, desferrioxamine], the “Effect on acetic acid-induced colitis” value [1] was “prevent acetic acid-induced colitis”.
`COCCOCCOc1cccc(C2=N[C@@](C)(C(=O)O)CS2)c1O` [II-A] showed a LogPapp (LogPapp of DFT analogs) of −0.93, a concentration at 0.5 h ([2]; cerebrospinal fluid, 300 μmol/kg SC, 0.5 h, read-out: Concentration in cerebrospinal fluid) of 0 µM and a concentration at 1 h [2, 3] of 0 µM. The concentration at 2 h [2, 3] was 0 µM, the concentration at 4 h [2, 3] was 0 µM and the concentration at 8 h ([2]; cerebrospinal fluid, 300 μmol/kg SC) was 0 nM. The concentration at 0.5 h ([2]; plasma, 300 μmol/kg SC, 0.5 h, read-out: Concentration in plasma) was 77 ± 10 µM, the concentration at 1 h [2, 4] was 66 ± 5 µM and the concentration at 2 h [2, 4] was 44 ± 2 µM. The concentration at 4 h [2, 4] was 7 ± 1 µM and the Concentration in plasma ([2]; 300 μmol/kg SC) was “trace”.
In the case of `COCCOCCOCCOc1cccc(C2=N[C@@](C)(C(=O)O)CS2)c1O` [III-A], the LogPapp (LogPapp of DFT analogs) is reported as −1.22, the concentration at 1 h [2, 5] is reported as 0 µM and the concentration at 2 h [2, 5] is reported as 0 µM. The concentration at 4 h [2, 5] was 0 µM, the concentration at 8 h ([2]; cerebrospinal fluid, 300 μmol/kg PO) was 0 nM and the concentration at 0.5 h ([2]; plasma, 300 μmol/kg PO, 0.5 h, read-out: Concentration in plasma) was 62 ± 24 µM. The concentration at 1 h [2, 6] was 46 ± 3 µM, the concentration at 2 h [2, 6] was 24 ± 5 µM and the concentration at 4 h [2, 6] was 13 ± 2 µM. The “Concentration in cerebrospinal fluid” value ([2]; 300 μmol/kg PO, 0.5 h) was “trace” and the Concentration in plasma ([2]; 300 μmol/kg PO) was “trace”.
